# Data: patent publication US6004928A, “Method of treating hyperlipidemia” (Biomeasure, Incorporated, priority 1998, dated 1999)
# Positions of bridges follow the written chain, without caps; N, C: chain ends. Non-standard residues stand in square brackets, D forms with d. Residues, ends and D or L forms follow the SMILES beside them.
# Experiments:
# [1] = test system: fatty (fa/fa) Zucker rats; test: Reduction of glycerol and triglycerides, chronic treatment in fatty Zucker rats; format: in vivo, rat
# Source text: The obese (fa/fa) Zucker and its derivative in the Zucker diabetic fatty (ZDF/Drt-fa) are excellent models of diabetes-induced dyspilidemia (Shafrir, E., Diabetes/Metabolism Rev. 8:179-208 (1992); Peterson, R. G., et al., ILAR News 32:16-19 (1990)). The animals develop progressive hypertriglyceridemia and hypercholesterolemia.
# Eleven male fatty Zucker rats weighing about 450 grams were randomly divided into 2 groups and their initial body weights recorded. The animals were housed in pairs in a normal 12 hour light/dark cycle at 20±2° C. and fed a standard laboratory rat diet (Beekay rat and mouse diet, Bantin & Kingman, Hull, Humberside, U.K.) overnight ad libitum.
# For the group assigned to receive drug treatment, the rats received BIM-23268C at 3 mg/kg, by subcutaneous injection twice a day at 10:00 a.m. and 5:00 p.m. The other group was treated with a subcutaneous injection of 0.1 ml/100 g of saline twice a day at 10:00 a.m. and 5:00 p.m. The animals were subjected to the BIM-23268 or saline treatment for a total of six days.
# On the last day of treatment (day 6), food was removed at 5:00 p.m. and the rats fasted overnight. At 9:00 a.m. the next day, the animals were subjected to a glucose challenge, given as a 0.8 gram/kg of glucose orally. Periodic 400 ul of blood samples were taken from the tail vein (Peterson, R. G., ILAR News 32:16-19 (1990)) at 60 min. and 30 min. before, and at 30, 60, 90, and 120 min. after the administration of the glucose challenge (08. gram/kg orally). Aprotinin (Traysylol, Bayer UK, Hayward's Heath, W. Sussex, U.K.) and heparin (Sigma Chemical Co., Poole, Dorset, U.K.) were added to the blood samples to a final concentration of 400 KIU/ml and 100 units/ml, respectively. Plasma fractions were prepared from these samples by centrifugation at 400×G in a microfuge, for the estimation of triglycerides and glycerol. Samples were then stored at -80° C. until assayed.
# Plasma glycerol and triglycerides were determined using the Sigma Enzymatic (Tinder) calorimetric assay kit (Cat #337-B, Sigma Chemical Co., Poole, Dorset, U.K.) and measuring absorbance at 540 nm in a spectrophotometer.
# hSSTR-3 = target: T1, hSSTR-3 (Homo sapiens, UniProt P32745); test: Somatostatin receptor binding assay, [125I-Tyr11]somatostatin-14, transfected CHO-K1 membranes; conditions: 0.05 nM [125I-Tyr11]somatostatin-14, 30 min at 30° C.
# T1 construct: expressed in transfected cells; crude membranes
# Method: (§1) CHO-K1 (ovary, Chinese hamster) cells were obtained from ATCC (ATCC No. CCL 61). The cells were grown and maintained in Ham's F12 media (Gibco BRL, Grand Island, N.Y.) supplemented with 10% fetal bovine serum under standard tissue culture conditions. For transfection, the cells were seeded at a density 1×10^6 /60-cm plate (Baxter Scientific Products, McGraw Park, Ill.). […] CHO-K1 clonal cell lines that have stably inherited the transfected DNA were selected for growth in Ham's F12 media containing 10% fetal bovine serum and 0.5 mg/ml of G418 (Sigma). The cells were ring-cloned and expanded in the same media for analysis.
# (§2) Transfected cell lines expressing the human SSTR receptors were clonally expanded in culture and used in the following SSTR binding protocol.
# (§3) Crude membranes were prepared by homogenization of the transfected cells in 20 ml of ice-cold 50 mM Tris-HCl with a POLYTRON homogenizer (setting 6, 15 sec). Buffer was added to obtain a final volume of 40 ml, and the homogenate was centrifuged in a Sorval SS-34 rotor at 39,000 g for 10 min at 0-4° C. The resulting supernatant was decanted and discarded. The pellet was rehomogenized in ice-cold buffer, diluted, and centrifuged as before. The final pellet was resuspended in the 10 mM Tris HCl and held on ice for the receptor binding assay.
# The final assay volume was 0.3 ml. […]
# hSSTR-2 = target: T2, hSSTR-2 (Homo sapiens, UniProt P30874); test: as above; conditions: 0.05 nM [125I-Tyr11]somatostatin-14, 30 min at 30° C.
# T2 construct: expressed in transfected cells; crude membranes
# Method: as §1, §2, §3
# The final assay volume was 0.3 ml. […]
# hSSTR-4 = target: T3, hSSTR-4 (Homo sapiens, UniProt P31391); test: as above; conditions: 0.05 nM [125I-Tyr11]somatostatin-14, 30 min at 30° C.
# T3 construct: expressed in transfected cells; crude membranes
# Method: as §1, §2, §3
# The final assay volume was 0.3 ml. […]
# hSSTR-5 = target: T4, hSSTR-5 (Homo sapiens, UniProt P35346); test: as above; conditions: 0.05 nM [125I-Tyr11]somatostatin-14, 30 min at 30° C.
# T4 construct: expressed in transfected cells; crude membranes
# Method: as §1, §2, §3
# The final assay volume was 0.3 ml. […]
# acromegalics = conditions: cited from earlier work
# alloxan diabetic dogs = conditions: cited from earlier work
# normal humans = conditions: cited from earlier work
# [2] = 3 mg/kg s.c. twice a day, 6 days, after oral glucose challenge 0.8 gram/kg, vs saline group
# [3] = 3 mg/kg s.c. twice a day, 6 days, samples 30 and 60 min before oral glucose challenge
# T4 sequence (P35346 whole entry): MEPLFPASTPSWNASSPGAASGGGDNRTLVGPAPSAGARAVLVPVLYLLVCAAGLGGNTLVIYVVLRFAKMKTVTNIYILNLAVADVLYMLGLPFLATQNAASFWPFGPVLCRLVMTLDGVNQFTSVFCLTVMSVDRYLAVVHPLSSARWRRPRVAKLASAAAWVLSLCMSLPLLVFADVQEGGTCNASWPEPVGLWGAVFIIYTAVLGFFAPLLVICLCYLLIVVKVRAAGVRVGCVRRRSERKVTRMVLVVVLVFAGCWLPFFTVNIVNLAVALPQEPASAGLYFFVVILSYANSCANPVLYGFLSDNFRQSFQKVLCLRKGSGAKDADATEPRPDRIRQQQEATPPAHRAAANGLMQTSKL
# T2 sequence (P30874 whole entry): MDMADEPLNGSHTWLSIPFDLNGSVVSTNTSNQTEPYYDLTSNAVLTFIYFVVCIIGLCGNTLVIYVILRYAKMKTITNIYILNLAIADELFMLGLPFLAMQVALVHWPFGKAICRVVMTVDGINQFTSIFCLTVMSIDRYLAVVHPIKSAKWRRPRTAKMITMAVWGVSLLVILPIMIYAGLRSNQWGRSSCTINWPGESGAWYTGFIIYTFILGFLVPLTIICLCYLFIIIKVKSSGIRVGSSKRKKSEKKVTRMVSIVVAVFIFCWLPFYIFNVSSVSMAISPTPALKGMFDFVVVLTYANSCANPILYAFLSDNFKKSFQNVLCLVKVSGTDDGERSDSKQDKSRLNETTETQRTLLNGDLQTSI
# T1 sequence (P32745 whole entry): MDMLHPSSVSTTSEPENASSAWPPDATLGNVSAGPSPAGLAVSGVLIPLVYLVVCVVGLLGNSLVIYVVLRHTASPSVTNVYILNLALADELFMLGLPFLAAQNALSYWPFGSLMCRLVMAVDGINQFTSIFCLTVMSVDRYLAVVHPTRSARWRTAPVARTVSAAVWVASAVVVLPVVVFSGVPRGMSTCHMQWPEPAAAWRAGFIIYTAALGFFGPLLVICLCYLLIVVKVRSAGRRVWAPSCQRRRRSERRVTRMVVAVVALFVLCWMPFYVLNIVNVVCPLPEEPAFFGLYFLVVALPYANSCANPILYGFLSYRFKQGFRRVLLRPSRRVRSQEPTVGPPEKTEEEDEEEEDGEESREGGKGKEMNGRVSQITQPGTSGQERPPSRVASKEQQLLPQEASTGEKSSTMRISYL
# T3 sequence (P31391 whole entry): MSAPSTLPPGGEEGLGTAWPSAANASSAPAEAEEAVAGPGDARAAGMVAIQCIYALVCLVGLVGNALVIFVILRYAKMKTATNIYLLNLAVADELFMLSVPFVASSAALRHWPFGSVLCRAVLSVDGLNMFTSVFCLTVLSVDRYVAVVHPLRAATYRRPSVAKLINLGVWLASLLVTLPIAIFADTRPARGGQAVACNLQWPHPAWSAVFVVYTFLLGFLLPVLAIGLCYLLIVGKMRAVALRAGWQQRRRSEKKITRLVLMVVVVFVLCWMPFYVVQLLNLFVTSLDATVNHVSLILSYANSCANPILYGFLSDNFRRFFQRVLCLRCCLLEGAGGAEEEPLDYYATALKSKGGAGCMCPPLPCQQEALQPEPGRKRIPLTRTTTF
compound,measurement,setting,value
"C[C@@H](O)[C@@H]1NC(=O)[C@H](CCCCN)NC(=O)[C@@H](Cc2c[nH]c3ccccc23)NC(=O)[C@H](Cc2ccccc2)NC(=O)[C@H](Cc2ccccc2)NC(=O)[C@@H](N)CSSC[C@@H](C(N)=O)NC(=O)[C@H](Cc2ccccc2)NC1=O [BIM-23268, H-Cys-Phe-Phe-D-Trp-Lys-Thr-Phe-Cys-NH2] (H-CFF[dW]KTFC-NH2; disulfide 1-8 (inferred))",plasma glycerol through the 2-hour test period,[1]; [2],significantly lower
same,plasma triglycerides through the 2-hour test period,[1]; [2],significantly lower
same,plasma glycerol,[1]; [3],significantly lowered
same,plasma triglycerides,[1]; [3],significantly lowered
same,hypertriglyceridemia,[1]; 6-day treatment period at the prescribed dose,effective in reducing hypertriglyceridemia
"C[C@@H](O)[C@@H]1NC(=O)[C@H](CCCCN)NC(=O)[C@@H](Cc2c[nH]c3ccccc23)NC(=O)[C@H](Cc2ccc(O)c(I)c2)NC(=O)[C@H](Cc2ccccc2)NC(=O)[C@@H](N)CSSC[C@@H](C(N)=O)NC(=O)[C@H](Cc2ccccc2)NC1=O [BIM-23313, H-Cys-Phe-Tyr(I)-D-Trp-Lys-Thr-Phe-Cys-NH2]",Ki,hSSTR-3,25.5 nM
same,Ki,hSSTR-2,4.78 nM
same,Ki,hSSTR-4,55.3 nM
same,Ki,hSSTR-5,0.3 nM
C[C@H](N)C(=O)NCC(=O)N[C@H]1CSSC[C@@H](C(=O)O)NC(=O)[C@H](CO)NC(=O)[C@H]([C@@H](C)O)NC(=O)[C@H](Cc2ccccc2)NC(=O)[C@H]([C@@H](C)O)NC(=O)[C@H](CCCCN)NC(=O)[C@H](Cc2c[nH]c3ccccc23)NC(=O)[C@H](Cc2ccccc2)NC(=O)[C@H](Cc2ccccc2)NC(=O)[C@H](CC(N)=O)NC(=O)[C@H](CCCCN)NC1=O [somatostatin],plasma triglyceride concentrations,acromegalics,reduce plasma triglyceride concentrations
same,plasma triglyceride concentrations,alloxan diabetic dogs,reduce plasma triglyceride concentrations
same,plasma triglyceride concentrations,normal humans,reduce plasma triglyceride concentrations
